Results from patent US10604484B2, “Indolone compounds and their use as AMPA receptor modulators” (Janssen Pharmaceutica NV, priority 2015, dated 2020).

Biological target: T1, GluA1o-γ8 (Homo sapiens, UniProt P42261+Q8WXS5)
T1 construct: expressed in transfected cells
Assay: Calcium flux assay (FLIPR), inhibition of glutamate response of GluA1o-γ8 channel in HEK293 cells
Type: cell-based
Conditions: HEK293 cells stably expressing GRIA1o-CACNG8 fusion, 15 μM glutamate, pIC50 = negative log of the IC50 in molar; for IC50: read-out: GluR1-γ8 pIC50 (converted)
Excerpt: This assay was used to test compounds for their ability to inhibit TARP γ8 dependent AMPA receptor activity. The AMPA receptor is a non-selective cation channel activated by glutamate. Ionotropic glutamate receptors normally desensitize too rapidly to allow detectable calcium influx in a FLIPR assay (Strange et al. (2006). “Functional characterisation of homomeric ionotropic glutamate receptors GluR1-GluR6 in a fluorescence-based high throughput screening assay.” Comb Chem High Throughput Screen 9(2): 147-158). But, this desensitization is incomplete, and a substantial steady-state current remains in the sustained presence of glutamate (Cho et al. (2007). “Two families of TARP isoforms that have distinct effects on the kinetic properties of AMPA receptors and synaptic currents.” Neuron 55(6): 890-904).
An in vitro assay was used to determine the potency of test compounds as inhibitors of the glutamate response of the channel formed by GluA1o-γ8. To ensure a 1:1 stoichiometry of GluA1o and γ8 subunits in the expressed channel, a fusion of the cDNAs for GRIA1o and CACNG8 was used. Following Shi et al (2009) “The stoichiometry of AMPA receptors and TARPs varies by neuronal cell type.” Neuron 62(5): 633-640), the C-terminus of the cDNA for GRIA1o was fused to the N-terminus of the cDNA for γ8. The linker sequence was QQQQQQQQQQEFAT. Channels expressed with this construct appear to have similar properties to channels formed by co-expression of GRIA1o with an excess of CACNG8 (Shi et al. 2009). A clonal cell line in HEK293 cells stably expressing this construct, with a geneticin selection marker, was generated for use in this assay. Cell expressing the GRIA1o-CACNG8 fusion construct were grown in a monolayer in 96- or 384-well microtiter plates. They were washed with assay buffer (135 mM NaCl, 4 mM KCl, 3 mM CaCl2, 1 mM MgCl2, 5 mM glucose, 10 mM HEPES, pH 7.4, 300 mOs) using a Biotek EL405 plate washer. The cells were then loaded with a calcium-sensitive dye (Calcium-5 or Calcium-6, Molecular Devices) and the test compounds at a range of concentrations. Calcium flux following the addition of 15 μM glutamate was monitored using a Molecular Devices FLIPR Tetra.
The fluorescence in each well was normalized to the fluorescence of negative and positive control wells. The negative control wells had no added compounds, and the positive control wells had been incubated with 10 μM CP465022 (a non-subtype-selective AMPA receptor antagonist) (Lazzaro et al. (2002). “Functional characterization of CP-465,022, a selective, noncompetitive AMPA receptor antagonist.” Neuropharmacology 42(2): 143-153). The responses to glutamate as functions of the test compound concentrations were fitted to a four-parameter logistic function. The fitted parameter corresponding to the midpoint was taken to be the potency of inhibition of the compound. The data in Table 4 below illustrates the observed potentcy for the compounds described herein. pIC50 refers to the negative log of the IC50 in molar.

T1 sequence (P42261+Q8WXS5 fused): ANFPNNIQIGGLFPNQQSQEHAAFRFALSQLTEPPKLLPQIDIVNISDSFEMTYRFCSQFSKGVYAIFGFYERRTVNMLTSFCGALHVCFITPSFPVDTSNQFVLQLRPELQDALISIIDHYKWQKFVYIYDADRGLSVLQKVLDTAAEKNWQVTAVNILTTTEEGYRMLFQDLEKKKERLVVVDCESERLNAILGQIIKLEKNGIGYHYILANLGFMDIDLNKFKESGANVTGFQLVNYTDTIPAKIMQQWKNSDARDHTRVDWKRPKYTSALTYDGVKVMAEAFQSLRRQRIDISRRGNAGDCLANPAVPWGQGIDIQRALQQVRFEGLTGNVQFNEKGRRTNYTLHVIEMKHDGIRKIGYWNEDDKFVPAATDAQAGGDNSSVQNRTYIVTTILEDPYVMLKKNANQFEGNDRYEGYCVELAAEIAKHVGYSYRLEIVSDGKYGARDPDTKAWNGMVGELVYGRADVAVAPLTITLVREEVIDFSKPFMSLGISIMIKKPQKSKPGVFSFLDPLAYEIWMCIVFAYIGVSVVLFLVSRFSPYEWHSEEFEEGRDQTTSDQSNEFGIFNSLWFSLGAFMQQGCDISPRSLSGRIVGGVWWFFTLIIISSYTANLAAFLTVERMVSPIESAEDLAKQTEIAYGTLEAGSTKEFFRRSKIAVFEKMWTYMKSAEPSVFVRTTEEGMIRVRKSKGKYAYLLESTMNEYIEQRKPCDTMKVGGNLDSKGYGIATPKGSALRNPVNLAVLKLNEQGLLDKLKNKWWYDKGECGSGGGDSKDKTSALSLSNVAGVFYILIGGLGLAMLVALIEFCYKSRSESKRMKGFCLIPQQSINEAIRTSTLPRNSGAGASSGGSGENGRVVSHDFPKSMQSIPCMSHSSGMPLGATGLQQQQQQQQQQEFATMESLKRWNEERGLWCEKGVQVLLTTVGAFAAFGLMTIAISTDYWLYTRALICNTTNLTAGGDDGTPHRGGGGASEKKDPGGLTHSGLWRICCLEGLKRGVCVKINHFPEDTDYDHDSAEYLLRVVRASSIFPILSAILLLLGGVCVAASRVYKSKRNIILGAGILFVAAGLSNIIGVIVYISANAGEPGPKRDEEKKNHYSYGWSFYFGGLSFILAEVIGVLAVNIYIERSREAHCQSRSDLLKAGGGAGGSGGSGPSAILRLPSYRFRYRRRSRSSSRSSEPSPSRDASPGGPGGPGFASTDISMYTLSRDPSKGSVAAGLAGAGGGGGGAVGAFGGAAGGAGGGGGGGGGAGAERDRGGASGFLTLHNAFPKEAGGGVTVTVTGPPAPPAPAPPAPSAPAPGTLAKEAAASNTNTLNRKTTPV

Q: Cc1cccc(C)c1-c1ccc2c(c1)CC(=O)N2 [Example 1, 5-(2,6-Dimethylphenyl)indolin-2-one] was tested. Which “GluR1-γ8 pIC50” value did it give?
A: 6.4

Q: O=C1Cc2cc(-c3c(Cl)cccc3Br)ccc2N1 [Example 2, 5-(2-Bromo-6-chlorophenyl)indolin-2-one] was tested. Which IC50 did it give?
A: 25.1 nM

Q: Which IC50 does the source give for Cc1cccc(Cl)c1-c1ccc2c(c1)CC(=O)N2 [Example 3, 5-(2-Chloro-6-methyl-phenyl)indolin-2-one] here?
A: 100 nM

Q: For O=C1Cc2cc(-c3c(Cl)cccc3Cl)ccc2N1 [Example 4, 5-(2,6-Dichlorophenyl)indolin-2-one], which IC50 is on record?
A: 31.6 nM

Q: O=C1Cc2cc(-c3c(Cl)cccc3OC(F)(F)F)ccc2N1 [Example 5, 5-[2-Chloro-6-(trifluoromethoxy)phenyl]indolin-2-one] was tested. Which “GluR1-γ8 pIC50” value did it give?
A: 7.8

Q: With N#CCc1cccc(Cl)c1-c1ccc2c(c1)CC(=O)N2 [Example 6, 2-[3-Chloro-2-(2-oxoindolin-5-yl)phenyl]acetonitrile] as the molecule, how does the IC50 read?
A: 31.6 nM

Q: CC(C)(C#N)c1cccc(Cl)c1-c1ccc2c(c1)CC(=O)N2 [Example 81, 2-[3-Chloro-2-(2-oxoindolin-5-yl)phenyl]-2-methyl-propanenitrile] was tested. Which IC50 did it give?
A: 79.4 nM

Q: With N#Cc1ccc(Cl)c(-c2ccc3c(c2)CC(=O)N3)c1OC(F)(F)F [Example 115, 4-Chloro-3-(2-oxoindolin-5-yl)-2-(trifluoromethoxy)benzonitrile] as the molecule, how does the IC50 read?
A: 12.6 nM

Q: Which IC50 does the source give for O=C1Cc2cc(-c3c(Cl)cccc3OC(F)(F)F)cc(F)c2N1 [Example 117, 5-(2-Chloro-6-(trifluoromethoxy)phenyl)-7-fluoroindolin-2-one] here?
A: 3.16 nM

Q: For O=C1Cc2cc(-c3c(Cl)cccc3OC(F)F)cc(F)c2N1 [Example 118, 5-(2-Chloro-6-(difluoromethoxy)phenyl)-7-fluoroindolin-2-one], which IC50 is on record?
A: 15.8 nM

Q: How did the IC50 turn out when CC(C)(C#N)c1cccc(Cl)c1-c1cc(F)c2c(c1)CC(=O)N2 [Example 119, 2-(3-Chloro-2-(7-fluoro-2-oxoindolin-5-yl)phenyl)-2-methylpropanenitrile] was run?
A: 25.1 nM

Q: Which IC50 does the source give for COC1CCN(c2cccc(-c3cc(F)c4c(c3)CC(=O)N4)c2Cl)CC1 [Example 121, 5-(2-Chloro-3-(4-methoxypiperidin-1-yl)phenyl)-7-fluoroindolin-2-one] here?
A: > 10000 nM

Q: Which IC50 does the source give for Cc1cccc(OC(F)F)c1-c1cc(F)c2c(c1)CC(=O)N2 [Example 122, 5-[2-(Difluoromethoxy)-6-methyl-phenyl]-7-fluoro-indolin-2-one] here?
A: 15800 nM

Q: Which IC50 does the source give for COc1cccc(OC(F)F)c1-c1cc(F)c2c(c1)CC(=O)N2 [Example 123, 5-[2-(Difluoromethoxy)-6-methoxy-phenyl]-7-fluoro-indolin-2-one] here?
A: > 10000 nM

Q: How did the IC50 turn out when N#Cc1ccc(OC(F)(F)F)c(-c2cc(F)c3c(c2)CC(=O)N3)c1Cl [Example 124, 2-Chloro-3-(7-fluoro-2-oxo-indolin-5-yl)-4-(trifluoromethoxy)benzonitrile] was run?
A: 12.6 nM

Q: Which IC50 does the source give for Cc1cncc(C)c1-c1cc(F)c2c(c1)CC(=O)N2 [Example 125, 5-(3,5-Dimethyl-4-pyridyl)-7-fluoro-indolin-2-one] here?
A: 251 nM

Q: With O=C1Cc2cc(-c3c(Cl)cncc3Cl)cc(F)c2N1 [Example 126, 5-(3,5-Dichloro-4-pyridyl)-7-fluoro-indolin-2-one] as the molecule, how does the IC50 read?
A: 316 nM

Q: Cc1cc(-c2c(Cl)cccc2OC(F)(F)F)cc2c1NC(=O)C2 [Example 127, 5-[2-Chloro-6-(trifluoromethoxy)phenyl]-7-methyl-indolin-2-one] was tested. Which “GluR1-γ8 pIC50” value did it give?
A: 9.7

Q: Cc1cc(-c2c(Cl)cccc2OC(F)F)cc2c1NC(=O)C2 [Example 128, 5-[2-Chloro-6-(difluoromethoxy)phenyl]-7-methyl-indolin-2-one] was tested. Which IC50 did it give?
A: 1 nM

Q: Which IC50 does the source give for Cc1cc(-c2c(C)cccc2OC(F)F)cc2c1NC(=O)C2 [Example 129, 5-[2-(Difluoromethoxy)-6-methyl-phenyl]-7-methyl-indolin-2-one] here?
A: 3.16 nM

Q: COc1cccc(OC(F)F)c1-c1cc(C)c2c(c1)CC(=O)N2 [Example 130, 5-[2-(Difluoromethoxy)-6-methoxy-phenyl]-7-methyl-indolin-2-one] was tested. Which IC50 did it give?
A: 12.6 nM

Q: Cc1cc(-c2c(F)cccc2OC(F)F)cc2c1NC(=O)C2 [Example 131, 5-[2-(Difluoromethoxy)-6-fluoro-phenyl]-7-methyl-indolin-2-one] was tested. Which IC50 did it give?
A: 5.01 nM

Q: How did the IC50 turn out when Cc1cc(-c2c(Cl)cccc2C(C)(C)C#N)cc2c1NC(=O)C2 [Example 132, 2-[3-Chloro-2-(7-methyl-2-oxo-indolin-5-yl)phenyl]-2-methyl-propanenitrile] was run?
A: 0.501 nM

Q: How did the IC50 turn out when Cc1cc(-c2c(Cl)ccc(C#N)c2OC(F)(F)F)cc2c1NC(=O)C2 [Example 133, 4-Chloro-3-(7-methyl-2-oxoindolin-5-yl)-2-(trifluoromethoxy)benzonitrile] was run?
A: 0.126 nM

Q: How did the IC50 turn out when Cc1cc(-c2cccc(C#N)c2C)cc2c1NC(=O)C2 [Example 134, 2-Methyl-3-(7-methyl-2-oxo-indolin-5-yl)benzonitrile] was run?
A: 100 nM

Q: For Cc1cc(-c2c(C)cccc2Cl)cc2c1NC(=O)C2 [Example 135, 5-(2-Chloro-6-methyl-phenyl)-7-methyl-indolin-2-one], which IC50 is on record?
A: 0.398 nM

Q: How did the IC50 turn out when Cc1cc(-c2c(C)cccc2F)cc2c1NC(=O)C2 [Example 136, 5-(2-Fluoro-6-methyl-phenyl)-7-methyl-indolin-2-one] was run?
A: 3.16 nM

Q: With Cc1cc(-c2c(C)cccc2C(F)(F)F)cc2c1NC(=O)C2 [Example 137, 7-Methyl-5-[2-methyl-6-(trifluoromethyl)phenyl]indolin-2-one] as the molecule, how does the IC50 read?
A: 1.26 nM

Q: Which IC50 does the source give for Cc1cc(-c2c(C)cccc2C#N)cc2c1NC(=O)C2 [Example 138, 3-Methyl-2-(7-methyl-2-oxo-indolin-5-yl)benzonitrile] here?
A: 2.51 nM

Q: With COc1cccc(F)c1-c1cc(C)c2c(c1)CC(=O)N2 [Example 139, 5-(2-Fluoro-6-methoxy-phenyl)-7-methyl-indolin-2-one] as the molecule, how does the IC50 read?
A: 126 nM

Q: Which IC50 does the source give for Cc1cc(-c2c(F)cccc2F)cc2c1NC(=O)C2 [Example 140, 5-(2,6-Difluorophenyl)-7-methyl-indolin-2-one] here?
A: 316 nM

Q: With Cc1cc(-c2c(F)cccc2Cl)cc2c1NC(=O)C2 [Example 141, 5-(2-Chloro-6-fluoro-phenyl)-7-methyl-indolin-2-one] as the molecule, how does the IC50 read?
A: 2 nM

Q: With Cc1cc(-c2c(C)cccc2C)cc2c1NC(=O)C2 [Example 142, 5-(2,6-Dimethylphenyl)-7-methyl-indolin-2-one] as the molecule, how does the IC50 read?
A: 2.51 nM

Q: How did the IC50 turn out when Cc1cc(-c2c(Cl)cccc2C#N)cc2c1NC(=O)C2 [Example 143, 3-Chloro-2-(7-methyl-2-oxoindolin-5-yl)benzonitrile] was run?
A: 5.01 nM

Q: With Cc1cc(-c2c(Cl)cnc(C(F)(F)F)c2Cl)cc2c1NC(=O)C2 [Example 144, 5-(3,5-Dichloro-2-(trifluoromethyl)pyridin-4-yl)-7-methylindolin-2-one] as the molecule, how does the IC50 read?
A: 12.6 nM

Q: With Cc1cc(-c2c(Cl)cncc2OC(F)(F)F)cc2c1NC(=O)C2 [Example 145, 5-[3-Chloro-5-(trifluoromethoxy)-4-pyridyl]-7-methyl-indolin-2-one] as the molecule, how does the IC50 read?
A: 3.16 nM

Q: With Cc1cc(-c2c(Cl)cncc2OC(F)F)cc2c1NC(=O)C2 [Example 146, 5-(3-Chloro-5-(difluoromethoxy)pyridin-4-yl)-7-methylindolin-2-one] as the molecule, how does the “GluR1-γ8 pIC50” value read?
A: 8.1

Q: How did the IC50 turn out when Cc1cc(-c2c(Cl)cncc2Cl)cc2c1NC(=O)C2 [Example 147, 5-(3,5-Dichloro-4-pyridyl)-7-methyl-indolin-2-one] was run?
A: 7.94 nM
